Laboratory results reported in patent US6897316B2, “Substituted 2-phenyl-4-quinolone-3-carboxylic acid compounds and their use as antitumor agents” (China Medical University, priority 2003, dated 2005).
Values after ≈ are worked out from the molar mass of the structure shown.

Experiments:
[1] = system: lung cancer cell line (A-549); test: Preliminary cytotoxicity screening against lung cancer cell line A-549 (SRB assay); type: cell-based, human; conditions: for ED50 (cytotoxicity against A-549): 50% reduction in absorbance at 562 nm, Table 2 (tromethamine salts X); for ED50 (cytotoxicity against A-549) / IC50: SRB assay, A-549; for IC50: Homo sapiens, A549, 50% reduction in absorbance at 562 nm relative to untreated cells, Table 1 (esters VII, acids IX), read-out: ED50 (cytotoxicity against A-549)
Experimental: (§1) Compounds were assayed for in vitro cytotoxicity in a panel of human tumor cell lines at the School of Pharmacy, University of North Carolina at Chapel Hill, according to procedures described previously [Lee, K. H., Lin, Y. M., Wu, T. S., Zhang, D. C., Yamagishi, T., Hayashi, T., Hall, I. H., Chang, J. J., Wu, R. Y., Yang, T. H. The cytotoxic principles of Prunella vulgaris, Psychotria serpens, and Hyptis capitata: Ursolic acid and related derivatives. Planta Med. 1988, 54, 308-11; Boyd, M. R. Status of the National Cancer Institute preclinical antitumor drug discovery screen: implications for selection of new agents for clinical trial. Devita, V. T., Jr. Hellman, S., Rosenberg, S. A., Eds, J. B. Cancer: Principles and Practice of Oncology Update, 1989, 3: pp1-12, Lippincoft: Philadephia; Monks, A., Scudiero, D., Skehan, P., Shoemaker, R., Paull, K., Vistica, D., Hose, C., Langley, J., Cronise, P., Vaigro-Wolff, A., Gray-Goodrich, M., Campbell, H., Mayo, J., Boyd, M. Feasibility of a high-flux anticancer drug screen using a diverse panel of cultured human tumor cell lines. J. Natl. Cancer Inst. 1991, 83, 757-66.] The cell lines included human ovarian cancer (1A9), ileocecal carcinoma (HCT-8), lung carcinoma (A-549), glioblastoma (U-87-MG), bone (HOS), epidermoid carcinoma of the naynx (KB), P-gp-expressing epidermoid carcinoma of the nasopharynx (KB-VIN), and melanoma (SKMEL-2) cell line. The cytotoxic effects of each compound were obtained as EC50 values, which represent the molar drug concentrations required to cause 50% inhibition.
Preliminary screening of antitumor activity was based on the cytotoxicity tested in human long cancer (A-549) cell lines. […] Among 3-carboxylic acid derivatives (IX), the cytotoxicity was not remarkable when the m-position of 2-phenyl group was substituted by OCH3 group (IX-3, 7, 11). ED50 values were greater than 20 μg/mL. […] The antitumor activity was not good, if there was no substitution on the m-position of 2-phenyl group ([…]).

bone (HOS) cell line = test: Activity against HTCL replication, HOS; type: cell-based, human; conditions: mean ED50
Experimental: as §1, with “The cell lines included human ovarian cancer (1A9), ileocecal carcinoma (HCT-8), lung carcinoma (A-549), glioblastoma (U-87-MG), bone (HOS), epidermoid carcinoma of the naynx (KB), P-gp-expressing epidermoid carcinoma of the nasopharynx (KB-VIN), and melanoma (SKMEL-2) cell line. The cytotoxic effects of each compound were obtained as EC50 values, which represent the molar drug concentrations required to cause 50% inhibition.” left out

[2] = system: glioblastoma (U87-MG) cell line; test: Activity against HTCL replication, U87-MG; type: cell-based, human; conditions: mean ED50
Experimental: as §1, with “The cell lines included human ovarian cancer (1A9), ileocecal carcinoma (HCT-8), lung carcinoma (A-549), glioblastoma (U-87-MG), bone (HOS), epidermoid carcinoma of the naynx (KB), P-gp-expressing epidermoid carcinoma of the nasopharynx (KB-VIN), and melanoma (SKMEL-2) cell line. The cytotoxic effects of each compound were obtained as EC50 values, which represent the molar drug concentrations required to cause 50% inhibition.” left out

[3] = system: human ovarian cancer (IA9) cell line; test: Activity against HTCL replication, IA9; type: cell-based; conditions: ovarian cancer IA9; mean ED50
Experimental: as §1
Antitumor activity of compounds IX-8 and X-8 was further tested on the following 8 cancer cell lines: CAKI, HOS, KB, KB-VIN, SK-MEL-2, U87-MG, HCT-8 and IA9. […] It is worth mentioning that these two compounds were quite active against human ovarian cancer cells (IA9), which were known to have a high level of drug resistant P-glycoprotein. IC50 of compound IX-8 against these cancer cells is only 0.03 μg/mL. Thus, this compound is really worth developing, particular against drug resistant ovarian cancer.

[4] = system: melanoma (SK-MEL-2) cell line; test: Activity against HTCL replication, SK-MEL-2; type: cell-based, human; conditions: mean ED50
Experimental: as §1, with “The cell lines included human ovarian cancer (1A9), ileocecal carcinoma (HCT-8), lung carcinoma (A-549), glioblastoma (U-87-MG), bone (HOS), epidermoid carcinoma of the naynx (KB), P-gp-expressing epidermoid carcinoma of the nasopharynx (KB-VIN), and melanoma (SKMEL-2) cell line. The cytotoxic effects of each compound were obtained as EC50 values, which represent the molar drug concentrations required to cause 50% inhibition.” left out

[5] = system: ileocecal carcinoma (HCT-8) cell line; test: Activity against HTCL replication, HCT-8; type: cell-based, human; conditions: mean ED50
Experimental: as §1, with “The cell lines included human ovarian cancer (1A9), ileocecal carcinoma (HCT-8), lung carcinoma (A-549), glioblastoma (U-87-MG), bone (HOS), epidermoid carcinoma of the naynx (KB), P-gp-expressing epidermoid carcinoma of the nasopharynx (KB-VIN), and melanoma (SKMEL-2) cell line. The cytotoxic effects of each compound were obtained as EC50 values, which represent the molar drug concentrations required to cause 50% inhibition.” left out

| melting point | Compound | ED50 (cytotoxicity against A-549) [1] [µg/mL] | IC50 [1] [µg/mL] | also measured |
| --- | --- | --- | --- | --- |
|  | 6-Methoxy-2-phenyl-4-quinolone-3-carboxylic acid tromethamine salt [Compound X-11] | >20 |  |  |
|  | NC(CO)(CO)CO.O=C(O)c1c(-c2cccc(Cl)c2)[nH]c2ccc(F)cc2c1=O [Compound X-1, 3′-Chloro-6-fluoro-2-phenyl-4-quinolone-3-carboxylic acid tromethamine salt] | 17.6 |  |  |
|  | NC(CO)(CO)CO.O=C(O)c1c(-c2cccc(F)c2)[nH]c2ccc(F)cc2c1=O [Compound X-2, 3′,6-Difluoro-2-phenyl-4-quinolone-3-carboxylic acid tromethamine salt] | 4.3 |  |  |
|  | NC(CO)(CO)CO.O=C(O)c1c(-c2cccc(F)c2)[nH]c2ccc(Cl)cc2c1=O [Compound X-5, 3′-Fluoro-6-chloro-2-phenyl-4-quinolone-3-carboxylic acid tromethamine salt] | 10.9 |  |  |
|  | NC(CO)(CO)CO.O=C(O)c1c(-c2cccc(Cl)c2)[nH]c2ccc(Cl)cc2c1=O [Compound X-6, 3′,6-Dichloro-2-phenyl-4-quinolone-3-carboxylic acid tromethamine salt] | >20 |  |  |
|  | COc1cccc(-c2[nH]c3ccc(Cl)cc3c(=O)c2C(=O)O)c1.NC(CO)(CO)CO [Compound X-7, 3′-Methoxy-6-chloro-2-phenyl-4-quinolone-3-carboxylic acid tromethamine salt] | >20 |  |  |
|  | COc1ccc2[nH]c(-c3cccc(F)c3)c(C(=O)O)c(=O)c2c1.NC(CO)(CO)CO [Compound X-8, 3′-Fluoro-6-methoxy-2-phenyl-4-quinolone-3-carboxylic acid tromethamine salt] | 2.4 |  | ED50 HOS (bone (HOS) cell line): 5.0 µg/mL; ED50 U87-MG [2]: 5.0 µg/mL; ED50 IA9 [3]: 0.88 µg/mL; ED50 SK-MEL-2 [4]: 2.0 µg/mL; ED50 HCT-8 [5]: 1.20 µg/mL |
|  | COc1ccc2[nH]c(-c3cccc(Cl)c3)c(C(=O)O)c(=O)c2c1.NC(CO)(CO)CO [Compound X-9, 3′-Chloro-6-methoxy-2-phenyl-4-quinolone-3-carboxylic acid tromethamine salt] | 17.6 |  |  |
|  | O=C(O)c1c(-c2cccc(Cl)c2)[nH]c2ccc(F)cc2c1=O [IX-1, 3′-Chloro-6-fluoro-2-phenyl-4-quinolone-3-carboxylic acid] |  | 20 (≈ 63 µM) |  |
| 272 °C (dec.) | O=C(O)c1c(-c2cccc(F)c2)[nH]c2ccc(F)cc2c1=O [IX-2, 3′,6-Difluoro-2-phenyl-4-quinolone-3-carboxylic acid] |  | 0.5 (≈ 1.66 µM) |  |
| 231 °C | COc1cccc(-c2[nH]c3ccc(F)cc3c(=O)c2C(=O)O)c1 [IX-3, 6-Fluoro-3′-methoxy-2-phenyl-4-quinolone-3-carboxylic acid] |  | > 20 |  |
| 297 °C | O=C(O)C1C(=O)c2cc(F)ccc2N=C1c1ccccc1 (centres unmarked) [IX-4, 6-Fluoro-2-phenyl-4-quinolone-3-carboxylic acid] |  |  |  |
| > 300 °C | O=C(O)c1c(-c2cccc(F)c2)[nH]c2ccc(Cl)cc2c1=O [IX-5, 3′-Fluoro-6-chloro-2-phenyl-4-quinolone-3-carboxylic acid] |  | 1.8 (≈ 5.67 µM) |  |
| 260 °C (dec.) | O=C(O)c1c(-c2cccc(Cl)c2)[nH]c2ccc(Cl)cc2c1=O [IX-6, 3′,6-Dichloro-2-phenyl-4-quinolone-3-carboxylic acid] |  | > 20 |  |
| 243 °C (dec.) | COc1cccc(-c2[nH]c3ccc(Cl)cc3c(=O)c2C(=O)O)c1 [IX-7, 3′-Methoxy-6-chloro-2-phenyl-4-quinolone-3-carboxylic acid] |  | > 20 |  |
| 223 °C (dec.) | COc1ccc2[nH]c(-c3cccc(Cl)c3)c(C(=O)O)c(=O)c2c1 [IX-9, 3′-Chloro-6-methoxy-2-phenyl-4-quinolone-3-carboxylic acid] |  | 20 (≈ 60.7 µM) |  |
| > 300 °C | COc1cccc(-c2[nH]c3ccc(OC)cc3c(=O)c2C(=O)O)c1 [IX-10, 3′,6-Dimethoxy-2-phenyl-4-quinolone-3-carboxylic acid] |  | > 20 |  |
| > 300 °C | COc1ccc2c(c1)C(=O)C(C(=O)O)C(c1ccccc1)=N2 (centres unmarked) [IX-11, 6-Methoxy-2-phenyl-4-quinolone-3-carboxylic acid] |  | > 20 | cytotoxicity / antitumor activity in words ([1]; A-549, preliminary screening): not good |
| 254.2 to 255.6 °C (dec.) | O=C(O)C1C(=O)c2cc(Cl)ccc2N=C1c1ccccc1 (centres unmarked) [IX-15, 6-Chloro-2-phenyl-4-quinolone-3-carboxylic acid] |  |  |  |
| 267.5 to 269.2 °C (dec.) | O=C(O)C1C(=O)c2cc3c(cc2N=C1c1ccccc1)OCO3 (centres unmarked) [IX-22, 6,7-Methylenedioxy-2-phenyl-4-quinolone-3-carboxylic acid] |  |  |  |
|  | CCOC(=O)c1c(-c2cccc(F)c2)[nH]c2ccc(Cl)cc2c1=O [VII-5, Ethyl 3′-fluoro-6-chloro-2-phenyl-4-quinolone-3-carboxylate] |  | > 20 |  |
|  | CCOC(=O)c1c(-c2cccc(OC)c2)[nH]c2ccc(Cl)cc2c1=O [VII-7, Ethyl 3′-methoxy-6-chloro-2-phenyl-4-quinolone-3-carboxylate] |  | > 20 |  |
|  | CCOC(=O)c1c(-c2cccc(Cl)c2)[nH]c2ccc(OC)cc2c1=O [VII-9, Ethyl 3′-chloro-6-methoxy-2-phenyl-4-quinolone-3-carboxylate] |  | > 20 |  |
|  | CCOC(=O)c1c(-c2cccc(OC)c2)[nH]c2ccc(OC)cc2c1=O [VII-10, Ethyl 3′,6-dimethoxy-2-phenyl-4-quinolone-3-carboxylate] |  | > 20 |  |
